In patent US7879542B2, “Methylated gene biomarkers for detecting cancer” (The Johns Hopkins University, priority 2003, dated 2011):

Tests used:
SPARC mRNA expression = assay: 5Aza-dC / TSA treatment of pancreatic cancer cell lines harboring SPARC methylation, SPARC mRNA by RT-PCR; assay type: cell-based, human
Method: (§1) Four μg of total RNA was reverse-transcribed using Superscript II (Invitrogen). The SPARC RT-PCR reaction was performed under the condition as follow: 95° C. for 5 minutes; then 28 cycles of 95° C. for 20 seconds, 63° C. for 20 seconds, and 72° C. for 20 seconds; and a final extension of 4 minutes at 72° C. Primer sequences were 5′-AAGATCCATGAGAATGAGAAG-3′ (forward) (SEQ ID NO: 11) and 5′-AAA AGC GGG TGG TGC AAT G-3′ (reverse) (SEQ ID NO: 12). To check the integrity of mRNA, glyceraldehyde-3-phosphate dehydrogenase (GAPDH) was also amplified in the same PCR condition. For semiquantitative analysis, the RT-PCR was performed with primers for SPARC and GAPDH in duplex reactions, and range of linear amplification for both genes was examined with serial PCR cycles to determine the optimal cycle. The relative intensity of SPARC mRNA expression was then corrected for variable RNA recovery using the corresponding GAPDH mRNA measurement as a surrogate for total mRNA.
Eight pancreatic cancer cell lines (AsPC1, BxPC3, Capan2, CFPAC1, Hs766T, MiaPaCa2, PL3, and PL12) were treated with 5Aza-dC. Cells in log phase growth were seeded in T-75 culture flasks. After overnight incubation, the cells were exposed continuously to 5Aza-dC (1 μM) for 4 days, with a change of drug and culture medium every 24 hours.
To confirm that DNA methylation is a mechanism for the silencing of SPARC, we treated 8 pancreatic cancer cell lines harboring SPARC methylation with the demethylating agent 5Aza-dC.

[1] = tested on: SPARC gene expression in pancreatic cancer cells; conditions: pancreatic cancer cells treated with 5Aza-dC; Sato et al., manuscript submitted; cited from earlier work
[2] = tested on: SPARC mRNA expression in fibroblasts (panc-f3); assay: Effect of TGF-β on SPARC expression in fibroblasts (semiquantitative RT-PCR); assay type: cell-based, human; conditions: TGF-β 5 ng/ml, 24 hours
Method: as §1
(§2) Because several growth factors such as TGF-β are known to induce the SPARC expression in fibroblasts (Wrana et al., 1991; Reed et al., 1994), and because TGF-β is one of the major secreted proteins highly expressed by pancreatic cancer cells (Friess et al., 1993), we examined the effect of TGF-β on SPARC expression in fibroblasts (panc-f3). […]

[3] = tested on: SPARC mRNA expression in AsPC1; assay: Effect of TGF-β on SPARC mRNA expression in pancreatic cancer cell lines; assay type: cell-based, human; conditions: TGF-β 5 ng/ml, data not shown
Method: as §1, §2

[4] = tested on: SPARC mRNA expression in Panc1; assay: as above; assay type: cell-based, human; conditions: TGF-β 5 ng/ml, data not shown
Method: as §1, §2

AsPC1 cells = assay: Effect of exogenous SPARC on proliferation of pancreatic cancer cells (cell count by hemacytometer); assay type: cell-based, human; conditions: SPARC 10 μg/ml, 72 hours
Method: (§3) We treated two pancreatic cancer cell lines (AsPC1 and Panc1) with exogenous SPARC. Cells in log phase growth were seeded at a density of 1×10^4 cells/well in 24-well plates. After overnight incubation, cells were treated with or without human platelet SPARC protein (10 μg/ml) for 72 hours, and the number of cells were counted by hemacytometer in three independent wells.
(§4) The effect of exogenous SPARC protein on growth of pancreatic cancer cells in vitro was also examined. We treated two pancreatic cancer cell lines (AsPC1 and Panc1) with purified SPARC protein and counted the number of cells after 72 hours.

Panc1 cells = assay: as above; assay type: cell-based, human; conditions: SPARC 10 μg/ml, 72 hours
Method: as §3, §4

## Nc1ncn([C@H]2C[C@H](O)[C@@H](CO)O2)c(=O)n1 [5Aza-dC, 5-Aza-2′-deoxycytidine]
SPARC mRNA expression; 8 pancreatic cancer cell lines harboring SPARC methylation, 5Aza-dC 1 μM, 4 days
  SPARC mRNA expression after treatment (RT-PCR): restored in 7 of the 8 cell lines
SPARC mRNA expression; Hs766T cell line
  SPARC mRNA expression after treatment (RT-PCR): did not restore the SPARC expression
[1]
  induction of SPARC gene expression (oligonucleotide microarrays): ≥ 5 fold

## CC(/C=C/C(=O)NO)=C\[C@@H](C)C(=O)c1ccc(N(C)C)cc1 [trichostatin A (TSA), trichostatin A]
SPARC mRNA expression; Hs766T cell line
  SPARC mRNA expression after treatment (RT-PCR): did not induce the SPARC expression

## TGF-β: human recombinant transforming growth factor (TGF)-β1 purchased from Sigma
[2]
  increase in SPARC mRNA expression: ~3,3 fold
[3]
  SPARC transcript after treatment: remained undetectable
[4]
  increase in SPARC mRNA expression: ~1,5 fold

B1: SPARC: Purified human platelet SPARC protein purchased from Calbiochem (protein, UniProt P09486 18-303, looked up)
SPARC: APQQEALPDETEVVEETVAEVTEVSVGANPVQVEVGEFDDGAEETEEEVVAENPCQNHHCKHGKVCELDENNTPMCVCQDPTSCPAPIGEFEKVCSNDNKTFDSSCHFFATKCTLEGTKKGHKLHLDYIGPCKYIPPCLDSELTEFPLRMRDWLKNVLVTLYERDEDNNLLTEKQKLRVKKIHENEKRLEAGDHPVELLARDFEKNYNMYIFPVHWQFGQLDQHPIDGYLSHTELAPLRAPLIPMEHCTTRFFETCDLDNDKYIALDEWAGCFGIKQKDIDKDLVI
AsPC1 cells; P=0.001
  growth suppression: ~27%
AsPC1 cells; mean±SD, untreated 5.8±0.8
  cell number: 4.2±0.3 ×10^4 cells
Panc1 cells; P<0.0001
  growth inhibition: ~30%
Panc1 cells; mean±SD, untreated 5.0±0.4
  cell number: 3.5±0.4 ×10^4 cells
